Data published in patent publication US6995183B2, “Adamantylglycine-based inhibitors of dipeptidyl peptidase IV and methods” (Bristol Myers Squibb Company, priority 2003, dated 2006).
Like-named read-outs stand apart in the source and are kept apart here. Blank lines part the entries; values can stand above or below the compound they belong to.

What was measured:
[1] = target: T1, Porcine Dipeptidyl Peptidase IV (Sus scrofa, UniProt P22411); test: Assay of Porcine Dipeptidyl Peptidase IV, steady-state inhibition constants (Ki); type: biochemical; conditions: DPP-IV
T1 construct: left at 37° C. for 18 hours to facilitate cleavage of DPP-4 from cell membranes; from tissue; host or cells: pig kidney cortex
T1 sequence (P22411 38-766 limits assumed): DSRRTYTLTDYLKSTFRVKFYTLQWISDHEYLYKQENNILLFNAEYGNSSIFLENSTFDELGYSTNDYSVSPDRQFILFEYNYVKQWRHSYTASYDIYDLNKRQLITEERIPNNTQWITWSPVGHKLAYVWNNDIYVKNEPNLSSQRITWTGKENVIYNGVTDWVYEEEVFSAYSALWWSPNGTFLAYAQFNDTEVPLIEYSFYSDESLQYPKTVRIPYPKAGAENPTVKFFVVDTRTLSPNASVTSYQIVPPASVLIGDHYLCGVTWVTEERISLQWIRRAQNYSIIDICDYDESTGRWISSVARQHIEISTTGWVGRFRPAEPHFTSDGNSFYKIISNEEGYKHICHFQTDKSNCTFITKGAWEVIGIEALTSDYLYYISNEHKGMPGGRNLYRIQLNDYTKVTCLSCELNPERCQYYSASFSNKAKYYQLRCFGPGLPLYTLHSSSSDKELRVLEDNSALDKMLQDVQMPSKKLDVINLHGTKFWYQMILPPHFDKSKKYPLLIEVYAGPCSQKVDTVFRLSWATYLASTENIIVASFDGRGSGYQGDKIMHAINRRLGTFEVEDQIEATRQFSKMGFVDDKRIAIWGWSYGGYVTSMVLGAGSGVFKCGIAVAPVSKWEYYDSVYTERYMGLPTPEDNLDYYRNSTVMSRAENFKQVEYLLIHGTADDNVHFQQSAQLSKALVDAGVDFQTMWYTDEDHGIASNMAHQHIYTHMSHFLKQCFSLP
Procedure: DPP-4 inhibitor activity of the compounds of the invention may be determined by use of an in vitro assay system which measures the potentiation of inhibition of DPP-4.
Porcine enzyme was purified as previously described in reference (2) below, with several modifications. Kidneys from 15-20 animals were obtained, and the cortex was dissected away and frozen at −80° C. Frozen tissue (2000-2500 g) was homogenized in 12 L of 0.25 M sucrose in a Waring blender. The homogenate then was left at 37° C. for 18 hours to facilitate cleavage of DPP-4 from cell membranes. After the cleavage step, the homogenate was clarified by centrifugation at 7000×g for 20 min at 4° C., and the supernatant was collected. […]
After dialysis against 20 mM Na2HPO4, pH 7.4, the preparation was clarified by centrifugation at 10,000×g. […] Purity of column fractions was analyzed by reducing SDS-PAGE, and the purest fractions were pooled and concentrated. […]
Enzyme was assayed under steady-state conditions as previously described in reference (2) below with gly-pro-p-nitroanilide as substrate, with the following modifications. […] A standard curve for p-nitroaniline absorbance was obtained at the beginning of each experiment, and enzyme catalyzed p-nitroaniline production was quantitated from the standard curve. […]

plasma DPP-IV = target: T2, plasma DPP-IV (Rattus norvegicus, UniProt P14740); test: Rat ex vivo plasma DPP-IV inhibition assay; type: in vivo, Zucker fa/fa rat; conditions: oral; for inhibition at 3 µmol/kg: rat, 3 μmol/kg
T2 construct: from tissue; host or cells: plasma of male Zucker fa/fa rats (Harlan)
T2 sequence (P14740 37-767 limits assumed): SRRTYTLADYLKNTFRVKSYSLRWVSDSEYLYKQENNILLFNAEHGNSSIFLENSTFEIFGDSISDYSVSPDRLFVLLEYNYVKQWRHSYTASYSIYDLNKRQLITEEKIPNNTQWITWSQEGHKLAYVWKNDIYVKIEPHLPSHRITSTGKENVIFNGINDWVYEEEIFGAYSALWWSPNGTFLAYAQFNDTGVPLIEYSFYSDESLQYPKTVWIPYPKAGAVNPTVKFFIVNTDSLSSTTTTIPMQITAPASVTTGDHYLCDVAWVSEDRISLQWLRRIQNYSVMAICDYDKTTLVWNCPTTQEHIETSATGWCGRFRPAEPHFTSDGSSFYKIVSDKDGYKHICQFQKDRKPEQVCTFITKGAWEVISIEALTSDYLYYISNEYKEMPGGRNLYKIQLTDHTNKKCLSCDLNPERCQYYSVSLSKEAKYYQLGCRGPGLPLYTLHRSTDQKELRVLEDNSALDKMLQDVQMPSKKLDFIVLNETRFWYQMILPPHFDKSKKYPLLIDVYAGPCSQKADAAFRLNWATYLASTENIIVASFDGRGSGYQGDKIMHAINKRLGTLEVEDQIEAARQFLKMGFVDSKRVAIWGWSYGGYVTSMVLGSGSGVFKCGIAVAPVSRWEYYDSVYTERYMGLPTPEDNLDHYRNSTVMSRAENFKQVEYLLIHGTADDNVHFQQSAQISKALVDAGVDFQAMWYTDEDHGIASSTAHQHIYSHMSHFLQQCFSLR

Zucker^fa/fa rat = test: Oral glucose tolerance test (OGTT) in Zucker fa/fa rats; type: in vivo; conditions: for glucose control after oral glucose challenge (in words): rodent model of impaired glucose homeostasis
Excerpt: In vivo evaluation of DPP-IV inhibitors has supported the connection between DPP-IV inhibition, increases in plasma insulin levels, and an improvement in glucose tolerance.^1 Several compounds in the present series are potent inhibitors of DPP-IV in vitro. As such, these inhibitors were selected to determine the effects of DPP-IV inhibition ex vivo and on glucose tolerance in Zucker^fa/fa rat. The Zucker^fa/fa rat is a frequently used model in type II diabetes and obesity research. […] Plasma glucose levels were then monitored over a 2 h period. Columns 3 and 4 show the ex vivo plasma DPP-IV inhibition activity. […] In contrast, the adamantyl inhibitors show good inhibitory activity in the ex vivo assay, even at extended time points.
Male Zucker^fa/fa rats (Harlan) weighing between 400 and 450 g were housed in a room that was maintained on a 12 h light /dark cycle and were allowed free access to normal rodent chow and tap water. The day before the experiment, the rats were weighed and divided into control and treated groups of six. Rats were fasted 17 h prior to the start of the study. […] Two blood samples were collected at −30 and 0 min by tail bleed. Glucose (2 g/kg) was administered orally at 0 min. Additional blood samples were collected at 15, 30, 60, 90 and 120 min. Blood samples were collected into EDTA containing tubes from Starstedt. Plasma glucose was determined by Cobas Mira (Roche Diagnostics) by the glucose oxidation method.

[2] = Solution stability of 2-cyano-pyrrolidines; type: physicochemical
Procedure: In experiments at pH=7.2 and 39° C., the greater degree of β-branching the greater degree of stability associated with the compound. […] These are depected in the table below.

Ki [1]: 17 nM
% Inhibition in Rat Ex Vivo assay 3 μmol/kg 0.5 h post dose (plasma DPP-IV; 0.5 h post dose): 80%
% Inhibition in Rat Ex Vivo assay 3 μmol/kg 4 h post dose (plasma DPP-IV; 4 h post dose): 67%
Compound: N#CC1CC2CC2N1C(=O)[C@@H](N)C12CC3CC(O)(CC(O)(C3)C1)C2.O=C(O)C(F)(F)F (stereo in doubt) [Example 8, (S)-3,5-Dihydroxyadamantylglycine-L-cis-4,5-methanoprolinenitrile TFA salt]

Compound: N#C[C@@H]1CCCC1C(=O)C(N)C12CC3CC(CC(O)(C3)C1)C2 (stereo partly shown) [Example 9]
glucose control after oral glucose challenge (in words) (Zucker^fa/fa rat): good glucose control

half-life ([2]; pH 7.2): 5 h
Compound: CC[C@H](C)[C@H](N)C(=O)N1CCC[C@H]1C#N [Ref. Std 1, iso-Leucine-cyanopyrrolide]
Glucose Lowering at 4 h; % AUC's, compared to control (Zucker^fa/fa rat; dosed at 16 μm/kg): −11%
Glucose Lowering at 4 h; % AUC's, compared to control (Zucker^fa/fa rat; dosed at 200 μm/kg): −19%
glucose control after oral glucose challenge (in words) (Zucker^fa/fa rat): only a slight change in glucose control

Ki [1]: 133 nM
inhibition at 3 µmol/kg (plasma DPP-IV; 0.5 h post dose, read-out: % Inhibition in Rat Ex Vivo assay 3 μmol/kg 0.5 h post dose): 70%
inhibition at 3 µmol/kg (plasma DPP-IV; 4 h post dose, read-out: % Inhibition in Rat Ex Vivo assay 3 μmol/kg 4 h post dose): 66%
Compound: CC12CC3(C)CC(O)(C1)CC([C@H](N)C(=O)N1CCCC1)(C2)C3 [Example 5, (3-hydroxy-5,7-dimethyladamant-1-yl)-glycine pyrrolidine amide]
Glucose Lowering at 4 h; % AUC's, compared to control (Zucker^fa/fa rat; oral, 3 μmol/kg, oral glucose 2 g/kg): −39%

Compound: tert-Leucine-cyanopyrrolide
times more stable than Ref. Std. 1 ([2]; pH=7.2, 39° C., ratio of t1/2): ~6
